Reference: patent publication US9540350B2, “1-substituted, 4-(substituted phenoxymethyl)-1,2,3-triazole compounds with antifungal properties and methods for preparation thereof” (FDC LIMITED, priority 2013, dated 2017)
≈ marks a conversion by molar mass, not a printed value. Like-named read-outs stand apart in the source and are kept apart here.

How the values were obtained:
C. tropicalis ATCC 750 = assay: Antifungal susceptibility, broth dilution MIC (CLSI M27-A2); format: cell-based, Candida tropicalis; details: Candida tropicalis, read-out: Activity against organisms (MIC50) Ct01
Description: (§1) The compounds of Formula 1 were tested for antifungal activity against Candida albicans, C. glabrata, C. krusei, C. tropicalis, Cryptococcus neoformans, Aspergillus fumigatus, A. niger and Fusarium proliferatum. In vitro evaluation of antifungal activity was performed by determining the minimum inhibitory concentration (MIC) following standard methods (CLSI: Reference method for broth dilution antifungal susceptibility testing of yeasts; Approved standard, second edition M27-A2, 2002; CLSI: Reference method for broth dilution antifungal susceptibility testing of filamentous fungi; Approved standard M38-A, 2002). Anti-fungal susceptibility testing of these anti-fungal compounds was done by broth dilution method using RPMI 1640 medium with MOPS buffer. Known anti-fungal agent fluconazole was used as positive control. End points were determined after 48 hours visually and by using spectrophotometer wherever necessary. Different dilutions were tried and various sets of experiments performed. The activity parameters are enumerated in Table 4.

C. albicans ATCC 24433 = assay: as above; format: cell-based; details: Candida albicans, read-out: Activity against organisms (MIC50) Ca01
Description: as §1

[1] = system: F. proliferatum ATCC 10052; assay: Antifungal susceptibility, broth dilution MIC (CLSI M38-A); format: cell-based; details: Fusarium proliferatum, read-out: Activity against organisms (MIC50) Fp01
Description: as §1

A. niger ATCC 16404 = assay: as above; format: cell-based; details: Aspergillus niger, read-out: Activity against organisms (MIC50) An01
Description: as §1

A. fumigatus ATCC 46645 = assay: as above; format: cell-based; details: Aspergillus fumigatus, read-out: Activity against organisms (MIC50) Afm01
Description: as §1

C. krusei ATCC 6258 = assay: Antifungal susceptibility, broth dilution MIC (CLSI M27-A2); format: cell-based, Candida krusei; details: Pichia kudriavzevii, read-out: Activity against organisms (MIC50) Ck01
Description: as §1

C. neoformans ATCC 34664 = assay: as above; format: cell-based, Cryptococcus neoformans; details: Cryptococcus neoformans, read-out: Activity against organisms (MIC50) Cn01
Description: as §1

C. glabrata ATCC 90030 = assay: as above; format: cell-based, Candida glabrata; details: Nakaseomyces glabratus, read-out: Activity against organisms (MIC50) Cg01
Description: as §1

[2] = ATCC750, C. tropicalis ATCC 750, broth dilution, RPMI 1640 with MOPS, 48 hours
[3] = ATCC24433, C. albicans ATCC 24433, broth dilution, RPMI 1640 with MOPS, 48 hours
[4] = ATCC10052, F. proliferatum ATCC 10052, broth dilution, RPMI 1640 with MOPS, 48 hours
[5] = ATCC16404, A. niger ATCC 16404, broth dilution, RPMI 1640 with MOPS, 48 hours
[6] = ATCC46645, A. fumigatus ATCC 46645, broth dilution, RPMI 1640 with MOPS, 48 hours
[7] = ATCC6258, C. krusei ATCC 6258, broth dilution, RPMI 1640 with MOPS, 48 hours
[8] = ATCC34664, C. neoformans ATCC 34664, broth dilution, RPMI 1640 with MOPS, 48 hours
[9] = ATCC90030, C. glabrata ATCC 90030, broth dilution, RPMI 1640 with MOPS, 48 hours

Row | Structure (SMILES) | MIC50 (C. tropicalis ATCC 750; [2]) [µg/mL] | MIC50 (C. albicans ATCC 24433; [3]) [µg/mL] | MIC50 [1, 4] [µg/mL] | MIC50 (A. niger ATCC 16404; [5]) [µg/mL] | MIC50 (A. fumigatus ATCC 46645; [6]) [µg/mL] | MIC50 (C. krusei ATCC 6258; [7]) [µg/mL] | MIC50 (C. neoformans ATCC 34664; [8]) [µg/mL] | MIC50 (C. glabrata ATCC 90030; [9]) [µg/mL] | MIC50 (C. tropicalis ATCC 750; ATCC750, 48 h) [µg/mL] | MIC50 (C. albicans ATCC 24433; ATCC24433, 48 h) [µg/mL] | MIC50 ([1]; ATCC10052, 48 h) [µg/mL] | MIC50 (A. niger ATCC 16404; ATCC16404, 48 h) [µg/mL] | MIC50 (A. fumigatus ATCC 46645; ATCC46645, 48 h) [µg/mL] | MIC50 (C. krusei ATCC 6258; ATCC6258, 48 h) [µg/mL] | MIC50 (C. neoformans ATCC 34664; ATCC34664, 48 h) [µg/mL] | MIC50 (C. glabrata ATCC 90030; ATCC90030, 48 h) [µg/mL]
1 | O=C(/C=C/c1ccccc1)c1ccc(OCc2cn(CC(O)(Cn3cncn3)c3ccc(F)cc3F)nn2)cc1 (centres unmarked) [Compound 1A-1, (E)-1-(4-((1-(2-(2,4-Difluorophenyl)-2-hydroxy-3-(1H-1,2,4-triazol-1-yl)propyl)-1H-1,2,3-triazol-4-yl)methoxy)phenyl)-3-phenylprop-2-en-1-one] | 1 (≈ 1.84 µM) | 0.12 (≈ 0.221 µM) | > 8 | > 8 | > 8 | 4 (≈ 7.37 µM) | 0.5 (≈ 0.922 µM) | 0.12 (≈ 0.221 µM) | – | – | – | – | – | – | – | –
2 | Cc1ccc(/C=C/C(=O)c2ccc(OCc3cn(CC(O)(Cn4cncn4)c4ccc(F)cc4F)nn3)cc2)cc1 (centres unmarked) [Compound 1A-3, (E)-1-(4-((1-(2-(2,4-Difluorophenyl)-2-hydroxy-3-(1H-1,2,4-triazol-1-yl)propyl)-1H-1,2,3-triazol-4-yl)methoxy)phenyl)-3-(4-methylphenyl)prop-2-en-1-one] | 2 (≈ 3.59 µM) | 0.25 (≈ 0.449 µM) | > 4 | > 4 | > 4 | 4 (≈ 7.19 µM) | 0.5 (≈ 0.898 µM) | 0.25 (≈ 0.449 µM) | – | – | – | – | – | – | – | –
3 | COc1ccc(C(=O)/C=C/c2ccc(OCc3cn(CC(O)(Cn4cncn4)c4ccc(F)cc4F)nn3)cc2)cc1 (centres unmarked) [Compound 1B-1] | 1 (≈ 1.75 µM) | 0.12 (≈ 0.21 µM) | > 4 | > 4 | > 4 | 4 (≈ 6.99 µM) | 1 (≈ 1.75 µM) | 0.5 (≈ 0.873 µM) | – | – | – | – | – | – | – | –
4 | O=C(/C=C/c1ccc(OCc2cn(CC(O)(Cn3cncn3)c3ccc(F)cc3F)nn2)cc1)c1ccc(F)cc1 (centres unmarked) [Compound 1B-2, (E)-3-(4-((1-(2-(2,4-Difluorophenyl)-2-hydroxy-3-(1H-1,2,4-triazol-1-yl)propyl)-1H-1,2,3-triazol-4-yl)methoxy)phenyl)-1-(4-fluorophenyl)prop-2-en-1-one] | 2 (≈ 3.57 µM) | 0.06 (≈ 0.107 µM) | > 4 | > 4 | > 4 | 4 (≈ 7.14 µM) | 0.25 (≈ 0.446 µM) | 0.5 (≈ 0.892 µM) | – | – | – | – | – | – | – | –
5 | CC(=O)/C=C/c1ccc(OCc2cn(CC(O)(Cn3cncn3)c3ccc(F)cc3F)nn2)cc1 (centres unmarked) [Compound 1B-3, (E)-4-(4-((1-(2-(2,4-Difluorophenyl)-2-hydroxy-3-(1H-1,2,4-triazol-1-yl)propyl)-1H-1,2,3-triazol-4-yl)methoxy)phenyl)but-3-en-2-one] | – | – | – | – | – | – | – | – | 1 (≈ 2.08 µM) | 0.12 (≈ 0.25 µM) | > 64 | > 64 | > 64 | 16 (≈ 33.3 µM) | 2 (≈ 4.16 µM) | 0.5 (≈ 1.04 µM)
6 | C=C=CCOc1ccc(/C=C/C(=O)/C=C/c2ccc(OCc3cn(CC(O)(Cn4cncn4)c4ccc(F)cc4F)nn3)cc2)cc1 (centres unmarked) [Compound 1B-9, (1E,4E)-1-(4-(Buta-2,3-dienyloxy)phenyl)-5-(4-((1-(2-(2,4-difluorophenyl)-2-hydroxy-3-(1H-1,2,4-triazol-1-yl)propyl)-1H-1,2,3-triazol-4-yl)methoxy)phenyl)penta-1,4-dien-3-one] | 1 (≈ 1.57 µM) | 0.25 (≈ 0.393 µM) | > 2 | > 2 | > 2 | 2 (≈ 3.14 µM) | 0.25 (≈ 0.393 µM) | 0.5 (≈ 0.785 µM) | – | – | – | – | – | – | – | –

Further compounds by falling MIC50 (C. tropicalis ATCC 750; [2]), results first:

Row | MIC50 (C. tropicalis ATCC 750; [2]) [µg/mL] | MIC50 (C. albicans ATCC 24433; [3]) [µg/mL] | MIC50 [1, 4] [µg/mL] | MIC50 (A. niger ATCC 16404; [5]) [µg/mL] | MIC50 (A. fumigatus ATCC 46645; [6]) [µg/mL] | MIC50 (C. krusei ATCC 6258; [7]) [µg/mL] | MIC50 (C. neoformans ATCC 34664; [8]) [µg/mL] | MIC50 (C. glabrata ATCC 90030; [9]) [µg/mL] | Structure (SMILES) | MIC50 (C. tropicalis ATCC 750; ATCC750, 48 h) [µg/mL] | MIC50 (C. albicans ATCC 24433; ATCC24433, 48 h) [µg/mL] | MIC50 ([1]; ATCC10052, 48 h) [µg/mL] | MIC50 (A. niger ATCC 16404; ATCC16404, 48 h) [µg/mL] | MIC50 (A. fumigatus ATCC 46645; ATCC46645, 48 h) [µg/mL] | MIC50 (C. krusei ATCC 6258; ATCC6258, 48 h) [µg/mL] | MIC50 (C. neoformans ATCC 34664; ATCC34664, 48 h) [µg/mL] | MIC50 (C. glabrata ATCC 90030; ATCC90030, 48 h) [µg/mL]
7 | 2 (≈ 3.49 µM) | 0.25 (≈ 0.437 µM) | > 4 | > 4 | > 4 | 8 (≈ 14 µM) | 1 (≈ 1.75 µM) | 1 (≈ 1.75 µM) | COc1ccc(/C=C/C(=O)c2ccc(OCc3cn(CC(O)(Cn4cncn4)c4ccc(F)cc4F)nn3)cc2)cc1 (centres unmarked) [Compound 1A-2, (E)-1-(4-((1-(2-(2,4-Difluorophenyl)-2-hydroxy-3-(1H-1,2,4-triazol-1-yl)propyl)-1H-1,2,3-triazol-4-yl)methoxy)phenyl)-3-(4-methoxyphenyl)prop-2-en-1-one] | – | – | – | – | – | – | – | –
8 | 2 (≈ 3.95 µM) | 0.12 (≈ 0.237 µM) | > 32 | > 32 | > 32 | > 32 | 1 (≈ 1.97 µM) | 0.5 (≈ 0.987 µM) | O=C(/C=C/c1ccc(OCc2cn(CC(O)(Cn3cncn3)c3ccc(F)cc3F)nn2)cc1)C1CC1 (centres unmarked) [Compound 1B-4, (E)-1-(Cyclopropyl)-3-(4-((1-(2-(2,4-difluorophenyl)-2-hydroxy-3-(1H-1,2,4-triazol-1-yl)propyl)-1H-1,2,3-triazol-4-yl)methoxy)phenyl)prop-2-en-1-one] | – | – | – | – | – | – | – | –
9 | 2 (≈ 2.87 µM) | 0.5 (≈ 0.718 µM) | > 2 | > 2 | > 2 | 8 (≈ 11.5 µM) | 2 (≈ 2.87 µM) | 0.5 (≈ 0.718 µM) | CCCCCN1CCN(c2ccc(C(=O)/C=C/c3ccc(OCc4cn(CC(O)(Cn5cncn5)c5ccc(F)cc5F)nn4)cc3)cc2)CC1 (centres unmarked) [Compound 1B-7, (E)-3-(4-((1-(2-(2,4-Difluorophenyl)-2-hydroxy-3-(1H-1,2,4-triazol-1-yl)propyl)-1H-1,2,3-triazol-4-yl)methoxy)phenyl)-1-(4-(4-n-pentylpiperazin-1-yl)phenyl)-prop-2-en-1-one] | – | – | – | – | – | – | – | –
10 | 1 (≈ 1.82 µM) | 0.12 (≈ 0.219 µM) | > 8 | > 8 | > 8 | 4 (≈ 7.29 µM) | 0.5 (≈ 0.911 µM) | 0.5 (≈ 0.911 µM) | O=C(/C=C/c1cccs1)c1ccc(OCc2cn(CC(O)(Cn3cncn3)c3ccc(F)cc3F)nn2)cc1 (centres unmarked) [Compound 1A-4, (E)-1-(4-((1-(2-(2,4-Difluorophenyl)-2-hydroxy-3-(1H-1,2,4-triazol-1-yl)propyl)-1H-1,2,3-triazol-4-yl)methoxy)phenyl)-3-(2-thienyl)prop-2-en-1-one] | – | – | – | – | – | – | – | –
11 | 0.5 (≈ 0.748 µM) | 0.06 (≈ 0.0897 µM) | > 4 | > 4 | > 4 | > 4 | 1 (≈ 1.5 µM) | 0.5 (≈ 0.748 µM) | CCCN1CCN(c2ccc(C(=O)/C=C/c3ccc(OCc4cn(CC(O)(Cn5cncn5)c5ccc(F)cc5F)nn4)cc3)cc2)CC1 (centres unmarked) [Compound 1B-5, (E)-3-(4-((1-(2-(2,4-Difluorophenyl)-2-hydroxy-3-(1H-1,2,4-triazol-1-yl)propyl)-1H-1,2,3-triazol-4-yl)methoxy)phenyl)-1-(4-(4-propylpiperazin-1-yl)phenyl)prop-2-en-1-one] | – | – | – | – | – | – | – | –
12 | 0.5 (≈ 0.732 µM) | 0.12 (≈ 0.176 µM) | > 4 | > 4 | > 4 | > 4 | 1 (≈ 1.46 µM) | 0.5 (≈ 0.732 µM) | CCCCN1CCN(c2ccc(C(=O)/C=C/c3ccc(OCc4cn(CC(O)(Cn5cncn5)c5ccc(F)cc5F)nn4)cc3)cc2)CC1 (centres unmarked) [Compound 1B-6, (E)-1-(4-(4-n-Butylpiperazin-1-yl)phenyl)-3-(4-((1-(2-(2,4-difluorophehyl)-2-hydroxy-3-(1H-1,2,4-triazol-1-yl)propyl)-1H-1,2,3-triazol-4-yl)methoxy)phenyl)prop-2-en-1-one] | – | – | – | – | – | – | – | –
13 | 0.5 (≈ 0.67 µM) | 0.12 (≈ 0.161 µM) | > 8 | > 8 | > 8 | 2 (≈ 2.68 µM) | 0.5 (≈ 0.67 µM) | 0.12 (≈ 0.161 µM) | COc1ccc(CN2CCN(c3ccc(C(=O)/C=C/c4ccc(OCc5cn(CC(O)(Cn6cncn6)c6ccc(F)cc6F)nn5)cc4)cc3)CC2)cc1 (centres unmarked) [Compound 1B-8, (E)-3-(4-((1-(2-(2,4-Difluorophenyl)-2-hydroxy-3-(1H-1,2,4-triazol-1-yl)propyl)-1H-1,2,3-triazol-4-yl)methoxy)phenyl)-1-(4-(4-(4-methoxybenzyl)piperazin-1-yl)phenyl)prop-2-en-1-one] | – | – | – | – | – | – | – | –
